Read-outs that look alike come from different tables or passages of the source.
Tests used:
[1] = tested on: Peripheral blood mononuclear cells (PBMC); experiment: Mixed lymphocyte reaction (MLR), [3H]-thymidine incorporation; format: cell-based; details: Homo sapiens
Source text: (§1) Various models may be used for testing an immunosuppressive effect. In vivo, for example, different transplantation models are available. They are strongly influenced by different immunogenicities, depending on the donor and recipient species used and depending on the nature of the transplanted organ. The survival time of transplanted organs can thus be used to measure the suppression of the immune response. In vitro, there exist also various models. The most used are lymphocyte activation tests. Usually activation is measured via lymphocyte proliferation. Inhibition of proliferation thus always means immunosuppression under the experimental conditions applied. There exist different stimuli for lymphocyte activation: • coculture of lymphocytes of […] (MLR = mixed lymphocyte reaction): lymphocytes expressing different minor and major antigens of the HLA-DR type (= alloantigens) activate each other non-specifically. • CD3 assay: here there is an activation of the T-lymphocytes via an exogenously added antibody (OKT3). This antibody reacts against the CD3 molecule located on the lymphocyte membrane. This molecule has a costimulatory function. […] This molecule is also located on the lymphocyte membrane, and delivers strong costimulatory signals.
Peripheral blood mononuclear cells (PBMC) were isolated from heparinized peripheral blood by density gradient centrifugation over Lymphoprep (Nycomed, Maorstua, Norway). Allogeneic PBMC or EBV-transformed human B cells [RPMI1788 (ATCC name CCL156)] which strongly express B7-1 and B7-2 were used as stimulator cells after irradiation with 30 Gy. MLR was performed in triplicate wells. After 5 days incubation at 37EC, 1 µCi [^3H]-thymidine was added to each cup. After a further 16 hours incubation, cells were harvested and counted in a β-counter.
The percent suppression of proliferation by drugs was counted using the formula Percent inhibition =((cpm + drugs) - cpm Cult. Med)/((cpm - drugs) - cpm Cult. Med.)x 100 [formula]

Highly purified T cells [2] = experiment: T cell proliferation induced by anti-CD28 mAb + PMA (BrdU incorporation); format: cell-based, Human; details: Homo sapiens, T-cell
Source text: as §1
(§2) T cells were purified by removing non-T cells. Briefly,monocytes were removed by cold agglutination. The resulting lymphoid cells were further purified by a cell enrichment immunocolumn [Cellect Human T (Biotex, Edmonton, Alberta, Canada)] by a process of negative selection.
(§3) Measurements of T cell proliferations induced by anti-CD3 mAb + PMA or anti-CD28 mAb + PMA
(§4) Highly purified T cells (10^6/ml) were stimulated by immobilized anti-CD3 àr anti-CD28 mAb in the presence of PMA. Anti-CD3 mAb (CLB-CD3; CLB, Amsterdam, The Netherlands) were fixed on the 96-microwell plates by incubating the wells with 50 µl of mAb solution (1/800 dilution in culture medium). Anti-CD28 mAb (CLB-CD28; CLB, Amsterdam, The Netherlands) 50 µl (1/650 dilution in culture medium) was added directly to the wells. Further, 20 µl PMA (Sigma, St. Louis, MO, USA) solution (final concentration: 0.5 ng/ml) was added. Subsequently, 20 µl of immunosuppressants were added by serial dilution in triplicate wells. Finally 100 µl of the T cell suspension (10^6/ml) was added. After 48-hour incubation at 37EC in 5% CO2 20 Φl BrdU (100 ΦM solution) (Cell Proliferation Elisa, Boehringer-Mannheim Belgium) was added to each well. After a further overnight incubation the T cell proliferation was measured using a colorimetric immunoassay for qualification of cell proliferation based on measurements of the incorporation of BrdU during DNAsynthesis. The optical density (OD) was measured by a Behring EL311 plate reader at 450 nm (reference wavelength: 690 nm). The percent suppression of proliferation by drugs was counted using the formula: Per cent inhibition =((OD + drugs) - (OD Cult. Med.))/((OD - drugs) - (OD Cult. Med.))x 100 [formula]

Highly purified T cells [3] = experiment: T cell proliferation induced by anti-CD3 mAb + PMA (BrdU incorporation); format: cell-based, Human; details: Homo sapiens, T-cell
Source text: as §1, §2, §3, §4

[4] = Table II, read-out: IC50 in µM of pteridine derivative MLR
[5] = untitled structure table, no unit printed there, same values in Table II as IC50 in µM, read-out: MLR
[6] = Table II, read-out: IC50 in µM of pteridine derivative aCD28
[7] = untitled structure table, no unit printed there, same values in Table II as IC50 in µM, read-out: aCD28
[8] = Table II, read-out: IC50 in µM of pteridine derivative ACD3
[9] = untitled structure table, no unit printed there, same values in Table II as IC50 in µM, read-out: aCD3

| SMILES | IC50 [1, 4] | IC50 [1, 5] | IC50 (Highly purified T cells [2]; [6]) | IC50 (Highly purified T cells [2]; [7]) | IC50 (Highly purified T cells [3]; [8]) | IC50 (Highly purified T cells [3]; [9]) |
| --- | --- | --- | --- | --- | --- | --- |
| Nc1nc(N)c2nc(CNCc3ccccc3)cnc2n1 [Compound 19, 2,4-diamino-6-benzylaminomethyl pteridine] | 50 µM | 50 µM | 118 µM | 118 µM | 123 µM | 123 µM |
| CN(C)Cc1cnc2nc(N)nc(N)c2n1 [Compound 20, 2,4-diamino-6-dimethyl aminomethyl pteridine] | > 200 µM | > 200 µM | 100 µM | 100 µM | 170 µM | 170 µM |
| CCN(CC)c1nc(N)nc2ncc(-c3ccccc3)nc12 [Compound 21, 2-amino-4-diethylamino-6-phenylpteridine] | 15 µM | 15 µM | 20 µM | 20 µM | 80 µM | 80 µM |
| CCN(CC)c1nc(N)nc2ncc(-c3ccc(Cl)cc3)nc12 [Compound 22, 2-amino-4-diethylamino-6-(4-chlorophenyl) pteridine] | 17 µM | 17 µM | 20 µM | 20 µM | 50 µM | 50 µM |
| CCN(CC)c1nc(N)nc2ncc(-c3ccc(OC)cc3)nc12 [Compound 23, 2-amino-4-diethylamino-6-(4-methoxyphenyl) pteridine] | 12 µM | 12 µM | 20 µM | 20 µM | 20 µM | 20 µM |
| CCN(CC)c1nc(N)nc2ncc(-c3ccc(OC)c(OC)c3)nc12 [Compound 24, 2-amino-4-diethylamino-6-(3,4-dimethoxyphenyl) pteridine] | 0.08 µM | 0.08 µM | 0.1 µM | 0.1 µM | 0.5 µM | 0.5 µM |
| Nc1nc(N(Cc2ccccc2)Cc2ccccc2)c2nc(-c3ccccc3)cnc2n1 [Compound 25, 2-amino-4-dibenzylamino-6-phenyl pteridine] | 75 µM | 75 µM | 25 µM | 25 µM | 25 µM | 25 µM |
| Nc1nc(N(Cc2ccccc2)Cc2ccccc2)c2nc(-c3ccc(Cl)cc3)cnc2n1 [Compound 26, 2-amino-dibenzylamino-6-(4-chlorophenyl) pteridine] | 100 µM | 100 µM | 20 µM | 20 µM | 75 µM | 75 µM |
| COc1ccc(-c2cnc3nc(N)nc(N(Cc4ccccc4)Cc4ccccc4)c3n2)cc1 [Compound 27, 2-amino-4-dibenzylamino-6-(4-methoxyphenyl) pteridine] | 50 µM | 50 µM | 15 µM | 15 µM | 20 µM | 20 µM |
| COc1ccc(-c2cnc3nc(N)nc(N(Cc4ccccc4)Cc4ccccc4)c3n2)cc1OC [Compound 28, 2-amino-4-dibenzylamino-6-(3,4-dimethoxyphenyl) pteridine] | 3.5 µM | 3.5 µM | 3.2 µM | 3.2 µM | 4.3 µM | 4.3 µM |
| CCCN(CCC)c1nc(N)nc2ncc(-c3ccccc3)nc12 [Compound 29, 2-amino-4-dipropylamino-6-phenylpteridine] | 15 µM | 15 µM | 25 µM | 25 µM | 25 µM |  |
| CCCN(CCC)c1nc(N)nc2ncc(-c3ccc(Cl)cc3)nc12 [Compound 30, 2-amino-4-dipropylamino-6-(4-chlorophenyl)pteridine] | 13 µM | 13 µM | 6.7 µM | 6.7 µM | 9.7 µM | 9.7 µM |
| CCCN(CCC)c1nc(N)nc2ncc(-c3ccc(OC)cc3)nc12 [Compound 31, 2-amino-4-dipropylamino-6-(4-methoxyphenyl)pteridine] | 8.5 µM | 8.5 µM | 2.8 µM | 2.8 µM | 5.7 µM | 5.7 µM |
| CCCN(CCC)c1nc(N)nc2ncc(-c3ccc(OC)c(OC)c3)nc12 [Compound 32, 2-amino-4-dipropylamino-6-(3,4-dimethoxyphenyl)pteridine] | 2.2 µM | 2.2 µM | 0.7 µM | 0.7 µM | 0.8 µM | 0.8 µM |
| Nc1nc(N2CCOCC2)c2nc(-c3ccccc3)cnc2n1 [Compound 33, 2-amino-4-morpholino-6-phenylpteridine] | 15 µM | 15 µM | 20 µM | 20 µM | 100 µM | 100 µM |
| Nc1nc(N2CCOCC2)c2nc(-c3ccc(Cl)cc3)cnc2n1 [Compound 34, 2-amino-4-morpholino-6-(4-chlorophenyl)pteridine] | 12 µM | 12 µM | 20 µM | 20 µM | 20 µM | 20 µM |
| COc1ccc(-c2cnc3nc(N)nc(N4CCOCC4)c3n2)cc1OC [Compound 36, 2-amino-4-morpholino-6-(3,4-dimethoxyphenyl)pteridine] | 0.1 µM | 0.1 µM | 0.3 µM | 0.3 µM | 0.4 µM | 0.4 µM |
| Nc1nc(N2CCCCC2)c2nc(-c3ccccc3)cnc2n1 [Compound 37, 2-amino-4-piperidino-6-phenylpteridine] | 15 µM | 15 µM | 20 µM | 20 µM | 80 µM | 80 µM |
| Nc1nc(N2CCCCC2)c2nc(-c3ccc(Cl)cc3)cnc2n1 [Compound 38, 2-amino-4-piperidino-6-(4-chlorophenyl)pteridine] | 15 µM | 15 µM | 25 µM | 25 µM | 70 µM | 70 µM |
| CN1CCN(c2nc(N)nc3ncc(-c4ccccc4)nc23)CC1 [Compound 41, 2-amino-4-N-methylpiperazino-6-phenylpteridine] | 15 µM | 15 µM | 25 µM | 25 µM | 40 µM | 40 µM |
| CN1CCN(c2nc(N)nc3ncc(-c4ccc(Cl)cc4)nc23)CC1 [Compound 42, 2-amino-4-N-methylpiperazino-6-(4-chlorophenyl)pteridine] | 4.8 µM | 4.8 µM | 4.2 µM | 4.2 µM | 11 µM | 11 µM |
| COc1ccc(-c2cnc3nc(N)nc(N4CCN(C)CC4)c3n2)cc1 [Compound 43, 2-amino-4-N-methylpiperazino-6-(4-methoxyphenyl)pteridine] | 12.3 µM | 12.3 µM | 4.2 µM | 4.2 µM | 11.7 µM | 11.7 µM |
| COc1ccc(-c2cnc3nc(N)nc(N4CCN(C)CC4)c3n2)cc1OC [Compound 44] | 2 µM | 2 µM | 6.5 µM | 6.5 µM | 7.3 µM | 7.3 µM |
| Nc1nc(N2CCNCC2)c2nc(-c3ccccc3)cnc2n1 [Compound 46, 2-amino-4-piperazino-6-phenylpteridine] | 12 µM | 12 µM | 5 µM | 5 µM | 11.7 µM | 11.7 µM |

— patent publication EP1144412B1, “IMMUNOSUPPRESSIVE EFFECTS OF PTERIDINE DERIVATIVES” (4 AZA Bioscience nv, priority 1998, dated 2000)
